# Data reported in ChEMBL document CHEMBL1140892, “Synthesis and evaluation of rifabutin analogs against Mycobacterium avium and H(37)Rv, MDR and NRP Mycobacterium tuberculosis” (Bioorg Med Chem, 2009).
# The source made the active and inactive calls. The rule behind the calls is not given here.
# Tests used:
# [1] = system: Mycobacterium tuberculosis; experiment: Antimycobacterial activity against isoniazid, rifampicin and ethambutol-resistant Mycobacterium tuberculosis after 7 days by resazurin method; type: functional; conditions: 168 h
# [2] = system: Mycobacterium tuberculosis; experiment: Antimycobacterial activity against multidrug-resistant Mycobacterium tuberculosis infected in BALB/c mouse assessed as reduction of bacterial load in lungs at 5 mg/kg/day, intragastrically after 1 month relative to control; type: functional, organism-based
# [3] = system: Mycobacterium tuberculosis; experiment: Antimycobacterial activity against isoniazid, rifampicin and streptomycin-resistant Mycobacterium tuberculosis after 7 days by resazurin method; type: functional; conditions: 168 h
SMILES,MIC [1] [µg/mL],Activity [2],MIC [3] [µg/mL]
C=CCCCCCCCCC(=O)N1C2=C3NC(=O)/C(C)=C\C=C\[C@H](C)[C@H](O)[C@@H](C)[C@@H](O)[C@@H](C)[C@H](OC(C)=O)[C@H](C)[C@@H](OC)/C=C/O[C@@]4(C)Oc5c(C)c(O)c(c(c5C4=O)C2=NC12CCN(CC(C)C)CC2)C3=O,6,Active,6
CO[C@H]1/C=C/O[C@@]2(C)Oc3c(C)c(O)c4c(c3C2=O)C2=NC3(CC[N+]([O-])(CC(C)C)CC3)NC2=C(NC(=O)/C(C)=C\C=C\[C@H](C)[C@H](O)[C@@H](C)[C@@H](O)[C@@H](C)[C@H](O)[C@@H]1C)C4=O (stereo partly drawn),> 10,–,> 10
CO[C@H]1/C=C/O[C@@]2(C)Oc3c(C)c(O)c4c(c3[C@H]2O)C2=NC3(CCN(CC(C)C)CC3)NC2=C(NC(=O)/C(C)=C\C=C\[C@H](C)[C@H](O)[C@@H](C)[C@@H](O)[C@@H](C)[C@H](O)[C@@H]1C)C4=O,> 10,–,> 10
CO[C@H]1/C=C/O[C@@]2(C)Oc3c(C)c(O)c4c(c3C2=O)C2=NC3(CCN(CC(C)C)CC3)NC2=C(NC(=O)/C(C)=C\C=C\[C@H](C)[C@H](O)[C@@H](C)[C@@H](O)[C@@H](C)[C@H](OC(C)=O)[C@@H]1C)C4=O [RIFABUTIN],> 10,Active,> 10
CO[C@H]1/C=C/O[C@@]2(C)Oc3c(C)c(O)c4c(c3C2=O)C2=NC3(CC[N+]([O-])(CC(C)C)CC3)NC2=C(NC(=O)/C(C)=C\C=C\[C@H](C)[C@H](O)[C@@H](C)[C@@H](O)[C@@H](C)[C@H](OC(C)=O)[C@@H]1C)C4=O (stereo partly drawn),> 10,–,> 10
CO[C@H]1/C=C/O[C@@]2(C)Oc3c(C)c(O)c4c(c3C2=O)C2=NC3(CCN(CC(C)C)CC3)NC2=C(NC(=O)/C(C)=C\C=C\[C@H](C)[C@H](O)[C@@H](C)[C@@H](O)[C@@H](C)[C@H](O)[C@@H]1C)C4=O,> 10,–,> 10
CO[C@H]1/C=C/O[C@@]2(C)Oc3c(C)c(O)c4c(c3[C@H]2O)C2=NC3(CC[N+]([O-])(CC(C)C)CC3)NC2=C(NC(=O)/C(C)=C\C=C\[C@H](C)[C@H](O)[C@@H](C)[C@@H](O)[C@@H](C)[C@H](OC(C)=O)[C@@H]1C)C4=O (stereo partly drawn),> 10,–,> 10
CO[C@H]1/C=C/O[C@@]2(C)Oc3c(C)c(O)c4c(c3[C@H]2O)C2=NC3(CCN(CC(C)C)CC3)N(C(C)=O)C2=C(NC(=O)/C(C)=C\C=C\[C@H](C)[C@H](O)[C@@H](C)[C@@H](O)[C@@H](C)[C@H](OC(C)=O)[C@@H]1C)C4=O,8,–,8
CO[C@H]1/C=C/O[C@@]2(C)Oc3c(C)c(O)c4c(c3C2=O)C2=NC3(CCN(CC(C)C)CC3)N(C(C)=O)C2=C(NC(=O)/C(C)=C\C=C\[C@H](C)[C@H](O)[C@@H](C)[C@@H](O)[C@@H](C)[C@H](OC(C)=O)[C@@H]1C)C4=O,> 10,Active,> 10
CCCCCCCCCCCCCCCC(=O)N1C2=C3NC(=O)/C(C)=C\C=C\[C@H](C)[C@H](O)[C@@H](C)[C@@H](O)[C@@H](C)[C@H](OC(C)=O)[C@H](C)[C@@H](OC)/C=C/O[C@@]4(C)Oc5c(C)c(O)c(c(c5C4=O)C2=NC12CCN(CC(C)C)CC2)C3=O,> 10,–,> 10
